According to paper PMC7943464, “Dim Red Light During Scotophase Enhances Mating of a Moth Through Increased Male Antennal Sensitivity Against the Female Sex Pheromone” (Frontiers in Genetics, 2021):

Each compound was assayed against T1, CpunOBP2 (Conogethes punctiferalis, UniProt A0A0C4K8H3) (assay: competitive 1-NPN fluorescence displacement).
T1 construct: gene OBP2; pET-32a(+) in E. coli BL21(DE3); Ni-IDA purified; tags removed by enterokinase
T1 sequence (A0A0C4K8H3 23-151): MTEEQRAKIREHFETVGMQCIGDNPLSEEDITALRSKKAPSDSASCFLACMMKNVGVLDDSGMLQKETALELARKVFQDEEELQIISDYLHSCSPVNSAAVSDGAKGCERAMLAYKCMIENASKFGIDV
Type: binding
Excerpt: competitive 1-NPN fluorescence displacement on CpunOBP2

With `CCCCC/C=C/CCCCCCCCC=O` [E10-16∶Ald, (E)-10-hexadecenal] as the compound, how does the IC50 read?
The IC50 was 9.55 ± 4.58 µM.

And the Ki?
Its Ki is 8.48 ± 4.06 µM.

With `CC/C=C\C/C=C\C/C=C\CCCCCCCCCCCCC` [Z3, Z6, Z9-23∶HC, (Z3, Z6, Z9)-tricosatriene] as the compound, how does the IC50 read?
Its IC50 is 4.14 ± 2.63 µM.

And the Ki?
Its Ki is 3.68 ± 2.33 µM.

What does the source list for `CCCCC/C=C\CCCCCCCCC=O` [Z10-16∶Ald, (Z)-10-hexadecenal]?
IC50: 7.73 ± 2.82 µM; Ki: 6.86 ± 2.5 µM
